Test results taken from patent publication US20070003510A1, “Preparations containing an extract of eperua falcata and/or constituents of the latter” (priority 2003, published 2007).

What was measured:
Format in all cases: cell-based
CGRP = assay: Quantity of neuropeptide CGRP released by neurone culture, ELISA (spontaneous, KCl- or capsaicin-stimulated); conditions: KCl 40 mM alone, 20 mins; based on the standard (no test substance) = 100
human keratinocytes = assay: Protection against UV-B radiation: LDH release from human keratinocytes; conditions: 0.003%, UV-B 50 mJ/cm^2, UV-B alone = 100, no UV-B = 0
Method: In cultured human cells, these effects of UV-B radiation on the cell membranes are associated with the release of a cytoplasmatic enzyme into the supernatant solution. This cytoplasmatic enzyme is lactate dehydrogenase or LDH (B. Bonnekoh, B. Farkas, J. Geisel and G. Mahrle, Lactate dehydrogenase release as an indicator of dithranol-induced membrane injury in cultured human keratinocytes, Dermatological Research (1990), Vol. 282, pages 325-331).
(§1) Human keratinocytes were incubated for three days at 37° C. in an atmosphere containing 5% by volume carbon dioxide (standard nutrient medium containing foetal calf serum (FCS)). The nutrient medium was then replaced by an isotonic common salt solution containing the substance to be tested (astilbin or engeletin). The keratinocytes were exposed to UV-B radiation (50 mJ/cm^2, DUKE GL40E lamp), followed by incubation for one day at 37° C. in an atmosphere containing 5% by volume carbon dioxide. The supernatant nutrient medium was spectroscopically analyzed for LDH2 and PEG2 by the ELISA method.
(§2) The results are set out in the following Table (% by comparison with the control test).

PGE2 = assay: Protection against UV-B radiation: PGE2 release from human keratinocytes, ELISA; conditions: 0.003%, UV-B 50 mJ/cm^2, UV-B alone = 100, no UV-B = 0
Source text: UV-B radiation (wavelength 280 to 320 nm) causes inflammation of the skin, mainly by activation of an enzyme (phospholipase A2 or PLA2) which releases arachidonic acid from the cell membrane (V. A. De Leo, D. Hanson, I. B. Weinstein and L. C. Harber, Ultraviolet radiation stimulates the release of arachidonic acid from mammalian cells in culture, Photochemistry and Photobiology (1985), Vol. 41, No. 1, pages 51 to 56). Other enzymes (so-called cyclo-oxygenases) then convert the arachidonic acid into active components, so-called prostaglandin (PG for short). The prostaglandin is secreted by the cells. The fixing of certain prostaglandins (PGE2) to specific receptors of the skin leads to reddening and swelling of the skin in the same way as sunburn does.
as §1, §2

human PMNs = assay: Respiratory burst: reactive oxygen compounds (ROS) of zymosan-activated human PMNs, luminol luminescence; conditions: for Content of reactive oxygen compounds (ROS) (% versus control): 24 h incubation, zymosan activation; for Effectiveness in suppressing inflammatory processes: in words, effectiveness increases with the quantity used
Source text: In the course of cutaneous inflammation, leucocytes, for example polymorphonuclear neutrophilic granulocytes (PMNs), are attracted and stimulated by peptides, such as cytokines and other messenger substances such as, for example, leudotrienes released from activated or necrotic cells in the dermis. These stimulated PMNs secrete not only pro-inflammatory cytokines, leucotrienes and proteases, but also reactive oxygen compounds (ROS), such as superoxides and hypochlorite anions for example. This is done to destroy pathogenic bacteria or fungi. This activity of the PMNs is known as respiratory burst and intensifies the inflammation reaction and causes tissue damage through released ROS and lysosomal enzymes.
Particulars of the test procedure can be found in the article by Kapp et al. entitled “The role of immunomodulating cytokines, activation of the oxidative metabolism in human polymorphonuclear neutrophilic granulocytes, Journal of Investigative Dermatology, Vol. 95, pages 94S to 99S, 1990”.
A suspension of human PMNs (1 million cells per milliliter) was exposed to the substances to be tested (incubation for 24 h at 37° C. in an atmosphere containing 5% by volume CO2). The number of PMN cells was determined. The PMNs were activated with 0.1 ml zymosan (an insoluble carbohydrate from the cell wall of yeast), followed by incubation for 0.5 h at 37° C. in an atmosphere containing 5% by volume CO2).
The results are set out in the following Table (% by comparison with the control test). The quantity of ROS was measured with luminol; luminescence was determined for 60 seconds.

Row | SMILES | CGRP (CGRP) | Quantity of LDH in %/(control without UV-B exposure) (human keratinocytes) [%] | Quantity of LDH in %/(control without UV-B exposure) (human keratinocytes; listed as astilbin) | Quantity of PGE2 in %/(control without UV-B exposure) (PGE2) [%] | Quantity of PGE2 in %/(control without UV-B exposure) (PGE2; listed as astilbin) | Content of reactive oxygen compounds (ROS) (% versus control) (human PMNs; dose 0.0003%) | Content of reactive oxygen compounds (ROS) (% versus control) (human PMNs; dose 0.001%) | Content of reactive oxygen compounds (ROS) (% versus control) (human PMNs; dose 0.003%) | Effectiveness in suppressing inflammatory processes (human PMNs) | Quantity of LDH in %/(control without UV-B exposure) (human keratinocytes; listed as engeletin) | Quantity of PGE2 in %/(control without UV-B exposure) (PGE2; listed as engeletin) | Content of reactive oxygen compounds (ROS) (% versus control) (human PMNs; dose 0.01%)
1 | [Cl-].[K+] [KCl, potassium chloride] | 554 ± 8 | – | – | – | – | – | – | – | – | – | – | –
2 | C[C@@H]1O[C@@H](O[C@H]2C(=O)c3c(O)cc(O)cc3O[C@@H]2c2ccc(O)c(O)c2)[C@H](O)[C@H](O)[C@H]1O [Pure astilbin, astilbin] | – | 58 | reduced | 58 | reduced | 47 | 26 | 14 | very effective | – | – | –
3 | CC1OC(OC2C(=O)c3c(O)cc(O)cc3OC2c2ccc(O)cc2)C(O)C(O)C1O (centres unmarked) [Pure engeletin, engeletin] | – | 47 | – | 35 | – | – | 65 | 50 | very effective | the effect is not as pronounced | the effect is not as pronounced | 25
